Data as given in patent US20070227557A1, “THICKENED SURFACTANT-FREE CLEANSING AND MULTIFUNCTIONAL LIQUID COATING COMPOSITIONS CONTAINING NONREACTIVE ABRASIVE SOLID PARTICLES AND AN ORGANOSILANE QUATERNARY COMPOUND AND METHODS OF USING” (priority 2005, published 2007).

Assay: Thickening / thixotropy of aqueous mixtures
Format: physicochemical
Conditions: standard test formulation
Description: “thixotropic” or “thixotropically” means, with reference to a thickened composition, when applied to a vertical surface, it will cling until disturbed by wiping or massaging in biomechanical cleansing.
The sodium dodecylbenzene sulfonate base employed in Examples 34-46 was prepared as follows: 90.07% (Wt.) of deionized water was placed in the blender beaker and 1.104% sodium hydroxide pellets added and the mixture stirred until all sodium hydroxide dissolved. 8.826% of dodecylbenzene sulfonic acid (98% purity) was added slowly with good stirring until all the dodecylbenzene sulfonic acid dissolved (reacted with the sodium hydroxide). The pH of the resulting solution was […]. The final solution contained 9.42% sodium dodecylbenzene sulfonate. Approximately 450 gms of the base, containing 408 gms of water and 42.4 gms of the sodium dodecylbenzene sulfonate, were used in all the examples of TABLE VI. 124 gms of aluminum oxide grit (A2-325 and P-6 grades from Altmatis) were employed in the compositions of TABLE VI.
The alkyl alcohol ethoxylates were added slowly with good mixing employing a Silverson L4RT-A laboratory mixer with the pump head mixer. As the mixture thickened, addition of the alkyl alcohol ethoxylates was slowed until the thickened mixture had the consistency of whipped cream. If the desired thickening was achieved, it was so noted as “YES”, if not, it was noted as “NO”.

Compound | formation of stable thickened compositions
sodium alkyl(C11-16) sulfonate | did not result in stable thickened compositions
CCCCCCCCCCCCc1ccc(S(=O)(=O)[O-])cc1.[Na+] [sodium docecylbenzene sulfonate] | did form stable thickened compositions
CCCCCCCCS(=O)(=O)[O-].[Na+] [sodium octane sulfonate] | did not result in stable thickened compositions
CCCCCCCCCCCCS(=O)(=O)[O-].[Na+] [sodium lauryl (C12) sulfonate] | did not result in stable thickened compositions
